Experimental data published in PMC6934184, “Selective DNA-PKcs inhibition extends the therapeutic index of localized radiotherapy and chemotherapy” (The Journal of Clinical Investigation, 2019).

Target: T1, PIK3C2B (PI3K-C2 beta) (Homo sapiens, UniProt O00750)
T1 construct: purchased Thermo Fisher Scientific (Life Technologies) SelectScreen
Test: SelectScreen Adapta
Type: biochemical
Settings: ATP 10 µM
Outline: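 Percent values come from Thermo SelectScreen profiling of NU5455, combining activity and binding assays. CSF1R was run in Z'LYTE format at Km app ATP, and CAMK1 in Adapta format with ATP listed at 10.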

T1 sequence (O00750 whole entry): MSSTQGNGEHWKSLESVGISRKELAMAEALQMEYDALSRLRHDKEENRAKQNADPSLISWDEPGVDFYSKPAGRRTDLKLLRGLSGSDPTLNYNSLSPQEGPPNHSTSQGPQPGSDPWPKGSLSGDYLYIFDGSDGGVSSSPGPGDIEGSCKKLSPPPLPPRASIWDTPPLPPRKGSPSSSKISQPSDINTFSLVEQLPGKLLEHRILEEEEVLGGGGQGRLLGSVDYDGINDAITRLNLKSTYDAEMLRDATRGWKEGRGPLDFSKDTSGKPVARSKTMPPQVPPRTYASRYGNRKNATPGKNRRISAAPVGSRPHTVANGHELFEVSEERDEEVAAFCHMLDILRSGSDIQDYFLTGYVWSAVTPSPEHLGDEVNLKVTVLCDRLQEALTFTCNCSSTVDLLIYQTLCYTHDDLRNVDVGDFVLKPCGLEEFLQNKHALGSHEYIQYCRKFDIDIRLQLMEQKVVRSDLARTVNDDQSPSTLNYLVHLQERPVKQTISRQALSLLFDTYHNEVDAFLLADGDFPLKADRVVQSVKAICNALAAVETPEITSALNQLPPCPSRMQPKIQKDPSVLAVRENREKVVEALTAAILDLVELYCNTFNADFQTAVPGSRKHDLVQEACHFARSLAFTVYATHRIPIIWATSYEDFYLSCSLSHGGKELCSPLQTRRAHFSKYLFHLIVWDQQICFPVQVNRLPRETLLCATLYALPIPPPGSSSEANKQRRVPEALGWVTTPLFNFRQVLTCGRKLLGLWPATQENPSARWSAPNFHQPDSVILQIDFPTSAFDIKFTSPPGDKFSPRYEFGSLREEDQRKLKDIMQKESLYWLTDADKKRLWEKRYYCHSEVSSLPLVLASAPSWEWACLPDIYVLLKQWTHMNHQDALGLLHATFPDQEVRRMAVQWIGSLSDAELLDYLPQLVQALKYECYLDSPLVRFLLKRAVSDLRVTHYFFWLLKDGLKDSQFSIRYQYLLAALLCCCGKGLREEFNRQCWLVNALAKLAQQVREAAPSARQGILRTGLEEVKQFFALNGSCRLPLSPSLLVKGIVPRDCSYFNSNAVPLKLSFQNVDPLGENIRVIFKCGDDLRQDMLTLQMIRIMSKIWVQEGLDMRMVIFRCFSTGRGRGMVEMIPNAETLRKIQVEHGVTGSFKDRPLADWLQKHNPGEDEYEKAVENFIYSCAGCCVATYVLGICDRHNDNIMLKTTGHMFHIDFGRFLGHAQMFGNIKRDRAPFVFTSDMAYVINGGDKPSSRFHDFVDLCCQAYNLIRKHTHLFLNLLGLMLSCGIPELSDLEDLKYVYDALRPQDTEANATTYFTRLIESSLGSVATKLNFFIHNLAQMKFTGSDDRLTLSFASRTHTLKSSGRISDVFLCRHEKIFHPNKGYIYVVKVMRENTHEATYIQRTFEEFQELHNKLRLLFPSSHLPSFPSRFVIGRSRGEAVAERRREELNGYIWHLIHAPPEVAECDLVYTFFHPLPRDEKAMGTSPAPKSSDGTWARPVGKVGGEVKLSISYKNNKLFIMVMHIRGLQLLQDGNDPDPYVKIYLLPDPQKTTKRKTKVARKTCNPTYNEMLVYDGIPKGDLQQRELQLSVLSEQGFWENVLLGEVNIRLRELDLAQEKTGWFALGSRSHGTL

CN(C(=O)CN1CCOCC1)c1ccc2sc3c(-c4cccc5c(=O)cc(N6CC7CCC(C6)O7)oc45)cccc3c2c1 [NU5455]
inhibition at 1 µM: 28.9%
